Experimental data from PubChem BioAssay (NCI).
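Exposure lasted 48 hours, with cells grown in 96-well plates and compounds tested at five concentrations. GI50 marks 50% less growth. At the TGI there is no net growth.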

Columns and labels:
Assay in all cases: NCI anticancer screen, dose series, 48 h
EKVX NSCLC = tested on: EKVX NSCLC
MALME-3M melanoma = tested on: MALME-3M melanoma
HL-60(TB) leukemia = tested on: HL-60(TB) leukemia
RXF 393 renal = tested on: RXF 393 renal
SK-MEL-5 melanoma = tested on: SK-MEL-5 melanoma
UACC-257 melanoma = tested on: UACC-257 melanoma
SW-620 colon = tested on: SW-620 colon
M14 melanoma = tested on: M14 melanoma
COLO 205 colon = tested on: COLO 205 colon
OVCAR-5 ovarian = tested on: OVCAR-5 ovarian
HT29 colon = tested on: HT29 colon
T-47D breast = tested on: T-47D breast
DU-145 prostate = tested on: DU-145 prostate
CAKI-1 renal = tested on: CAKI-1 renal
U251 CNS = tested on: U251 CNS
NCI-H460 lung = tested on: NCI-H460 lung
SNB-19 CNS = tested on: SNB-19 CNS
SK-OV-3 ovarian = tested on: SK-OV-3 ovarian
LOX IMVI melanoma = tested on: LOX IMVI melanoma
BT-549 breast = tested on: BT-549 breast
SK-MEL-28 melanoma = tested on: SK-MEL-28 melanoma
PC-3 prostate = tested on: PC-3 prostate
SNB-75 CNS = tested on: SNB-75 CNS
NCI/ADR-RES ovarian = tested on: NCI/ADR-RES ovarian
NCI-H522 lung = tested on: NCI-H522 lung
A549 NSCLC = tested on: A549 NSCLC
MCF7 breast = tested on: MCF7 breast
786-0 renal = tested on: 786-0 renal
SF-295 CNS = tested on: SF-295 CNS
SR leukemia = tested on: SR leukemia
MDA-MB-231 breast = tested on: MDA-MB-231 breast
ACHN renal = tested on: ACHN renal
OVCAR-4 ovarian = tested on: OVCAR-4 ovarian
HCC-2998 colon = tested on: HCC-2998 colon
RPMI-8226 leukemia = tested on: RPMI-8226 leukemia
A498 renal = tested on: A498 renal
SF-268 CNS = tested on: SF-268 CNS
HCT-15 colon = tested on: HCT-15 colon
MDA-MB-435 = tested on: MDA-MB-435
TK-10 renal = tested on: TK-10 renal
OVCAR-8 ovarian = tested on: OVCAR-8 ovarian
KM12 colon = tested on: KM12 colon
NCI-H226 lung = tested on: NCI-H226 lung
UACC-62 melanoma = tested on: UACC-62 melanoma
IGROV1 ovarian = tested on: IGROV1 ovarian
HOP-62 NSCLC = tested on: HOP-62 NSCLC
HCT-116 colon = tested on: HCT-116 colon
SF-539 CNS = tested on: SF-539 CNS
CCRF-CEM leukemia = tested on: CCRF-CEM leukemia
NCI-H23 lung = tested on: NCI-H23 lung
UO-31 renal = tested on: UO-31 renal
HS 578T breast = tested on: HS 578T breast
SN12C renal = tested on: SN12C renal
MOLT-4 leukemia = tested on: MOLT-4 leukemia

Structure (SMILES): O=C(N/N=C\c1ccc(Cl)cc1)c1ccc2nc(-c3ccc(Br)cc3)[nH]c2c1
- GI50 (EKVX NSCLC): 2030 nM
- TGI (EKVX NSCLC): 4280 nM
- GI50 (MALME-3M melanoma): 1680 nM
- TGI (MALME-3M melanoma): 3220 nM
- GI50 (HL-60(TB) leukemia): 2040 nM
- TGI (HL-60(TB) leukemia): 5030 nM
- GI50 (RXF 393 renal): 1500 nM
- TGI (RXF 393 renal): 3180 nM
- GI50 (SK-MEL-5 melanoma): 1850 nM
- TGI (SK-MEL-5 melanoma): 3630 nM
- GI50 (UACC-257 melanoma): 1600 nM
- TGI (UACC-257 melanoma): 3100 nM
- GI50 (SW-620 colon): 1600 nM
- TGI (SW-620 colon): 3260 nM
- GI50 (M14 melanoma): 1920 nM
- TGI (M14 melanoma): 3930 nM
- GI50 (COLO 205 colon): 1430 nM
- TGI (COLO 205 colon): 2860 nM
- GI50 (OVCAR-5 ovarian): 1990 nM
- TGI (OVCAR-5 ovarian): 4260 nM
- GI50 (HT29 colon): 1040 nM
- TGI (HT29 colon): 2380 nM
- GI50 (T-47D breast): 1580 nM
- TGI (T-47D breast): 3250 nM
- GI50 (DU-145 prostate): 1980 nM
- TGI (DU-145 prostate): 4180 nM
- GI50 (CAKI-1 renal): 1600 nM
- TGI (CAKI-1 renal): 3100 nM
- GI50 (U251 CNS): 1780 nM
- TGI (U251 CNS): 3180 nM
- GI50 (NCI-H460 lung): 601 nM
- TGI (NCI-H460 lung): 1940 nM
- GI50 (SNB-19 CNS): 2110 nM
- TGI (SNB-19 CNS): 4910 nM
- GI50 (SK-OV-3 ovarian): 1510 nM
- TGI (SK-OV-3 ovarian): 3870 nM
- GI50 (LOX IMVI melanoma): 1490 nM
- TGI (LOX IMVI melanoma): 3090 nM
- GI50 (BT-549 breast): 1870 nM
- TGI (BT-549 breast): 5540 nM
- GI50 (SK-MEL-28 melanoma): 1730 nM
- TGI (SK-MEL-28 melanoma): 3260 nM
- GI50 (PC-3 prostate): 1580 nM
- TGI (PC-3 prostate): 2990 nM
- GI50 (SNB-75 CNS): 1830 nM
- TGI (SNB-75 CNS): 4010 nM
- GI50 (NCI/ADR-RES ovarian): 2440 nM
- TGI (NCI/ADR-RES ovarian): 8010 nM
- GI50 (NCI-H522 lung): 1630 nM
- TGI (NCI-H522 lung): 3380 nM
- GI50 (A549 NSCLC): 1750 nM
- TGI (A549 NSCLC): 3300 nM
- GI50 (MCF7 breast): 1010 nM
- TGI (MCF7 breast): 2460 nM
- GI50 (786-0 renal): 1760 nM
- TGI (786-0 renal): 3260 nM
- GI50 (SF-295 CNS): 2070 nM
- TGI (SF-295 CNS): 4590 nM
- GI50 (SR leukemia): 895 nM
- TGI (SR leukemia): 3390 nM
- GI50 (MDA-MB-231 breast): 1900 nM
- TGI (MDA-MB-231 breast): 3890 nM
- GI50 (ACHN renal): 1750 nM
- TGI (ACHN renal): 3170 nM
- GI50 (OVCAR-4 ovarian): 2070 nM
- TGI (OVCAR-4 ovarian): 4830 nM
- GI50 (HCC-2998 colon): 1830 nM
- TGI (HCC-2998 colon): 3610 nM
- GI50 (RPMI-8226 leukemia): 1600 nM
- TGI (RPMI-8226 leukemia): 3890 nM
- GI50 (A498 renal): 1670 nM
- TGI (A498 renal): 3680 nM
- GI50 (SF-268 CNS): 2560 nM
- TGI (SF-268 CNS): 6870 nM
- GI50 (HCT-15 colon): 1520 nM
- TGI (HCT-15 colon): 3330 nM
- GI50 (MDA-MB-435): 1520 nM
- TGI (MDA-MB-435): 3150 nM
- GI50 (TK-10 renal): 2070 nM
- TGI (TK-10 renal): 3890 nM
- GI50 (OVCAR-8 ovarian): 1490 nM
- TGI (OVCAR-8 ovarian): 2880 nM
- GI50 (KM12 colon): 1860 nM
- TGI (KM12 colon): 4160 nM
- GI50 (NCI-H226 lung): 4960 nM
- TGI (NCI-H226 lung): 24000 nM
- GI50 (UACC-62 melanoma): 1850 nM
- TGI (UACC-62 melanoma): 3850 nM
- GI50 (IGROV1 ovarian): 1580 nM
- TGI (IGROV1 ovarian): 3410 nM
- GI50 (HOP-62 NSCLC): 1640 nM
- TGI (HOP-62 NSCLC): 3200 nM
- GI50 (HCT-116 colon): 1490 nM
- TGI (HCT-116 colon): 2990 nM
- GI50 (SF-539 CNS): 1720 nM
- TGI (SF-539 CNS): 3240 nM
- GI50 (CCRF-CEM leukemia): 1900 nM
- TGI (CCRF-CEM leukemia): 4730 nM
- GI50 (NCI-H23 lung): 1860 nM
- TGI (NCI-H23 lung): 4020 nM
- GI50 (UO-31 renal): 1450 nM
- TGI (UO-31 renal): 2860 nM
- GI50 (HS 578T breast): 2190 nM
- TGI (HS 578T breast): 5270 nM
- GI50 (SN12C renal): 1760 nM
- TGI (SN12C renal): 3490 nM
- GI50 (MOLT-4 leukemia): 1620 nM
- TGI (MOLT-4 leukemia): 4290 nM
